According to EP1081186A1, “Stabilized aqueous acrylamide polymer composition and photographic element containing the composition” (EASTMAN KODAK COMPANY (a New Jersey corporation), priority 1999, dated 2001):

Test: Inherent viscosity stability of aqueous acrylamide polymer solutions on keeping (capillary viscometer)
Format: physicochemical
Details: 0.33 % added to 15 % copolymer solution; at room temperature and at 50°C; compared with isopropanol
Protocol: In the following examples the inherent viscosities of the solutions were measured in a capillary viscometer at a polymer concentration of 0.25 g/dl using aqueous 0.1M sodium sulfate as the solvent. The measurements were carried out at a temperature of 25 degrees C. Inherent viscosity (I.V.) is calculated as: I.V. = ln( t / t0 )/c where t is the polymer solution flow time through the capillary, t0 is the solvent flow time, and c is the polymer concentration. [formula]
Initial Inherent Viscosities ranged from 2.00 to 2.12 dL/g. Percentage Change was defined with the following equation: %Change=(I.V.(t)-I.V.(0))/(I.V.(0))× 100 [formula] where I.V.(0) is the initial inherent viscosity and I.V.(t) is the inherent viscosity of the polymer at time t.
Initial Inherent Viscosities range from 1.90 to 2.00 dL/g. The I.V. change is determined as previously defined.

Structure (SMILES): CC(C)(C)c1cccc(O)c1O [t-butyl catechol]
- inherent viscosity stability: equal to or better than ten times the concentration of isopropanol
